Test results published in EPA's CvTdb concentration-time database.

Legend:
Rat [1] = assay: concentration in plasma after dosing; settings: dosed: Anthraquinone, 40 mg/kg, oral, Female, F344
Rat [2] = assay: concentration in plasma after dosing; settings: dosed: Anthraquinone, 400 mg/kg, oral, Male, F344
Rat [3] = assay: concentration in plasma after dosing; settings: dosed: Anthraquinone, 400 mg/kg, oral, Male, F344; remark: listed apart in the source
Rat [4] = assay: concentration in plasma after dosing; settings: dosed: Anthraquinone, 100 mg/kg, oral, Male, F344
Rat [5] = assay: concentration in plasma after dosing; settings: dosed: Anthraquinone, 40 mg/kg, oral, Female, Harlan Sprague Dawley
Rat [6] = assay: concentration in plasma after dosing; settings: dosed: Anthraquinone, 100 mg/kg, oral, Male, F344; remark: listed apart in the source
Rat [7] = assay: concentration in plasma after dosing; settings: dosed: Anthraquinone, 40 mg/kg, oral, Female, F344; remark: listed apart in the source
Rat [8] = assay: concentration in plasma after dosing; settings: dosed: Anthraquinone, 40 mg/kg, oral, Female, Harlan Sprague Dawley; remark: listed apart in the source
Rat [9] = assay: concentration in plasma after dosing; settings: dosed: Anthraquinone, 100 mg/kg, oral, Male, F344; remark: listed apart in the source
Rat [10] = assay: concentration in plasma after dosing; settings: dosed: Anthraquinone, 100 mg/kg, oral, Female, Harlan Sprague Dawley
Rat [11] = assay: concentration in plasma after dosing; settings: dosed: Anthraquinone, 100 mg/kg, oral, Male, F344; remark: listed apart in the source
Rat [12] = assay: concentration in plasma after dosing; settings: dosed: Anthraquinone, 40 mg/kg, oral, Male, Harlan Sprague Dawley
Rat [13] = assay: concentration in plasma after dosing; settings: 24 h; dosed: Anthraquinone; 40 mg/kg; oral; Male; F344
Rat [14] = assay: concentration in plasma after dosing; settings: dosed: Anthraquinone, 100 mg/kg, oral, Female, F344
Rat [15] = assay: concentration in plasma after dosing; settings: dosed: Anthraquinone, 100 mg/kg, oral, Male, F344; remark: listed apart in the source
Rat [16] = assay: concentration in plasma after dosing; settings: 24 h; dosed: Anthraquinone; 100 mg/kg; oral; Male; F344
Rat [17] = assay: concentration in plasma after dosing; settings: dosed: Anthraquinone, 400 mg/kg, oral, Male, F344; remark: listed apart in the source
Rat [18] = assay: concentration in plasma after dosing; settings: dosed: Anthraquinone, 100 mg/kg, oral, Male, F344; remark: listed apart in the source
Rat [19] = assay: concentration in plasma after dosing; settings: dosed: Anthraquinone, 100 mg/kg, oral, Male, F344; remark: listed apart in the source
Rat [20] = assay: concentration in plasma after dosing; settings: dosed: Anthraquinone, 400 mg/kg, oral, Male, F344; remark: listed apart in the source
Rat [21] = assay: concentration in plasma after dosing; settings: dosed: Anthraquinone, 40 mg/kg, oral, Female, Harlan Sprague Dawley; remark: listed apart in the source
Rat [22] = assay: concentration in plasma after dosing; settings: 24 h; dosed: Anthraquinone; 100 mg/kg; oral; Male; F344; remark: listed apart in the source
Rat [23] = assay: concentration in plasma after dosing
Rat [24] = assay: concentration in plasma after dosing; settings: dosed: Anthraquinone, 40 mg/kg, oral, Female, Harlan Sprague Dawley; remark: listed apart in the source
Rat [25] = assay: concentration in plasma after dosing; settings: dosed: Anthraquinone, 100 mg/kg, oral, Female, F344; remark: listed apart in the source
Rat [26] = assay: concentration in plasma after dosing; settings: dosed: Anthraquinone, 40 mg/kg, oral, Male, Harlan Sprague Dawley; remark: listed apart in the source
Rat [27] = assay: concentration in plasma after dosing; settings: dosed: Anthraquinone, 400 mg/kg, oral, Male, F344; remark: listed apart in the source
Rat [28] = assay: concentration in plasma after dosing; settings: dosed: Anthraquinone, 100 mg/kg, oral, Female, Harlan Sprague Dawley; remark: listed apart in the source
Rat [29] = assay: concentration in plasma after dosing; settings: dosed: Anthraquinone, 100 mg/kg, oral, Male, F344; remark: listed apart in the source
Rat [30] = assay: concentration in plasma after dosing; settings: dosed: Anthraquinone, 40 mg/kg, oral, Male, Harlan Sprague Dawley; remark: listed apart in the source
Rat [31] = assay: concentration in plasma after dosing; settings: dosed: Anthraquinone, 40 mg/kg, oral, Male, Harlan Sprague Dawley; remark: listed apart in the source
Rat [32] = assay: concentration in plasma after dosing; settings: dosed: Anthraquinone, 40 mg/kg, oral, Female, Harlan Sprague Dawley; remark: listed apart in the source
Rat [33] = assay: concentration in plasma after dosing; settings: dosed: Anthraquinone, 100 mg/kg, oral, Female, Harlan Sprague Dawley; remark: listed apart in the source
Rat [34] = assay: concentration in plasma after dosing; settings: dosed: Anthraquinone, 100 mg/kg, oral, Female, Harlan Sprague Dawley; remark: listed apart in the source
Rat [35] = assay: concentration in plasma after dosing; settings: dosed: Anthraquinone, 100 mg/kg, oral, Male, F344; remark: listed apart in the source
Rat [36] = assay: concentration in plasma after dosing; settings: dosed: Anthraquinone, 40 mg/kg, oral, Female, Harlan Sprague Dawley; remark: listed apart in the source
Rat [37] = assay: concentration in plasma after dosing; settings: dosed: Free Carbon disulfide, 50 mg/kg, iv, Male, F344
Rat [38] = assay: concentration in plasma after dosing; settings: dosed: Free Carbon disulfide, 10 mg/kg, iv, Male, F344
Rat [39] = assay: concentration in plasma after dosing; settings: dosed: Free Carbon disulfide, 10 mg/kg, iv, Male, F344; remark: listed apart in the source
Rat [40] = assay: concentration in plasma after dosing; settings: dosed: Free Carbon disulfide, 50 mg/kg, iv, Male, F344; remark: listed apart in the source
Rat [41] = assay: concentration in urine after dosing; settings: dosed: dibromoacetic acid, 40 mg/kg, oral, Male, F344
Rat [42] = assay: concentration in urine after dosing; settings: dosed: dibromoacetic acid, oral, Male, F344
Rat [43] = assay: concentration in urine after dosing; settings: dosed: dibromoacetic acid, 100 mg/kg, oral, Male, F344
Rat [44] = assay: concentration in urine after dosing; settings: dosed: dibromoacetic acid, 40 mg/kg, oral, Male, F344; remark: listed apart in the source
Rat [45] = assay: concentration in urine after dosing; settings: dosed: dibromoacetic acid, 100 mg/kg, oral, Male, F344; remark: listed apart in the source

O=C1c2ccccc2C(=O)c2ccccc21 [Anthraquinone]
Settings	concentration in plasma [ng/mL]
Rat [1], 1 h	36
Rat [1], 18 h	157
Rat [2], 2 h	352
Rat [2], 12 h	2500
Rat [3], 0.5 h	163
Rat [3], 24 h	1970
Rat [4], 2 h	120
Rat [4], 12 h	671
Rat [5], 1 h	57
Rat [5], 18 h	124
Rat [6], 0.5 h	41
Rat [6], 24 h	433
Rat [7], 1 h	61
Rat [7], 18 h	131
Rat [8], 2 h	128
Rat [8], 12 h	238
Rat [9], 0.5 h	27
Rat [9], 24 h	349
Rat [10], 4 h	255
Rat [10], 8 h	992
Rat [11], 0.5 h	28
Rat [11], 24 h	197
Rat [12], 4 h	131
Rat [12], 8 h	293
Rat [14], 1 h	63
Rat [14], 18 h	469
Rat [15], 1 h	72
Rat [15], 18 h	596
Rat [17], 1 h	345
Rat [17], 18 h	2880
Rat [18], 2 h	233
Rat [18], 12 h	719
Rat [19], 4 h	205
Rat [19], 8 h	522
Rat [20], 1 h	129
Rat [20], 18 h	2320
Rat [21], 2 h	90
Rat [21], 12 h	224
Rat [24], 1 h	65
Rat [24], 18 h	87
Rat [25], 1 h	61
Rat [25], 18 h	538
Rat [26], 2 h	101
Rat [26], 12 h	255
Rat [27], 0.5 h	148
Rat [27], 24 h	2120
Rat [28], 4 h	262
Rat [28], 8 h	595
Rat [29], 1 h	55
Rat [29], 18 h	429
Rat [30], 2 h	99
Rat [30], 12 h	242
Rat [31], 4 h	117
Rat [31], 8 h	241
Rat [32], 4 h	136
Rat [32], 8 h	280
Rat [33], 2 h	192
Rat [33], 12 h	818
Rat [34], 2 h	210
Rat [34], 12 h	880
Rat [35], 4 h	323
Rat [35], 8 h	758
Rat [36], 4 h	111
Rat [36], 8 h	255

Settings	concentration in plasma [ng/mL]
Rat [13]	66
Rat [16]	259
Rat [22]	210

concentration in plasma [ng/mL], Rat [23], dosed: Anthraquinone, oral
Settings	0.5 h	1 h	2 h	4 h	8 h	12 h	18 h	24 h
40 mg/kg, Female, F344	–	30	–	–	–	–	191	–
40 mg/kg, Female, Harlan Sprague Dawley	–	61	154	149	249	224	103	65
40 mg/kg, Male, F344	–	–	–	–	–	–	–	26
40 mg/kg, Male, Harlan Sprague Dawley	–	–	87	101	203	204	–	–
100 mg/kg, Female, F344	–	66	–	–	–	–	652	–
100 mg/kg, Female, Harlan Sprague Dawley	–	–	127	232	721	610	–	–
100 mg/kg, Male, F344	–	63	157	259	611	696	415	261
400 mg/kg, Male, F344	106	235	285	–	–	2590	2700	1940

S=C=S [Free Carbon disulfide]
concentration in plasma [µg/g]
Settings	0.05 h	1 h	5 min	10 min	20 min	40 min
Rat [37]	21.2	1.2	11	6.6	4.9	1.8
Rat [38]	5.8	–	7.9	1.4	–	–
Rat [39]	4.2	–	2.5	1.4	0.7	–
Rat [40]	20.2	2	15.9	9.5	5.6	2.6

concentration in plasma [µg/g], Rat [23], dosed: Free Carbon disulfide, iv, Male, F344
Settings	0.05 h	1 h	2 h	5 min	10 min	20 min	40 min
10 mg/kg	5	–	–	1.9	1.2	0.8	–
50 mg/kg	13.1	1.6	0.9	8.3	6.4	6.8	4.2

O=CC(=O)O [Glyoxylic acid]
concentration in urine [ng/mL]
Settings	0 h	2 h	4 h	8 h	24 h	48 h
Rat [41]	18400	11900	–	–	35600	37900
Rat [43]	27400	20700	28600	31200	28800	47900
Rat [44]	22300	–	–	20700	36100	34300
Rat [45]	16100	–	25000	–	30900	34300

concentration in urine [ng/mL], Rat [42]
Settings	0 h	4 h	8 h	24 h	48 h
40 mg/kg	29800	13200	27000	31800	26300
100 mg/kg	20500	25600	–	30400	54800
